Results taken from EPA's ToxRefDB 2.

How the values were obtained:
mouse [1] = settings: Prenatal developmental toxicity study, other, Injection, Intraperitoneal, dose end: 15 GD
rat [2] = settings: Fertility (Segment I); wistar; Injection; Subcutaneous; group: parental; systemic / organ weight / prostate / nos
rat [3] = settings: Subchronic oral toxicity in rodents, fischer, Feed, dose end: 13 week, group: systemic
dog [4] = settings: Chronic toxicity; beagle; Oral; Feed; dose end: 52 week; group: systemic; systemic / organ weight / thyroid gland / absolute + systemic / organ weight / thyroid gland / relative to body weight + systemic / …
rat [5] = settings: Multigenerational reproductive toxicity study, sprague dawley, Oral, Feed, dose end: 2 generation, group: parental
rabbit = settings: Prenatal developmental toxicity study, new zealand white, Oral, Gavage/Intubation, dose end: 19 GD, group: maternal
rat [6] = settings: Subchronic oral toxicity in rodents, sprague dawley, Feed, dose end: 3 month, group: systemic, systemic / clinical chemistry / glucose / glucose + systemic / hematology / erythrocyte (rbc) count differential / erythrocyte (rbc) + …
dog [7] = settings: Subchronic oral toxicity in nonrodent, beagle, Feed, dose end: 15 week, group: systemic, systemic / organ weight / liver / absolute + systemic / organ weight / liver / relative to body weight + systemic / pathology microscopic / …
rat [8] = settings: Prenatal developmental toxicity study, other, Oral, Gavage/Intubation, dose end: 15 GD
mouse [9] = settings: Carcinogenicity; cd1; Oral; Feed; dose end: 18 month; group: systemic; systemic / in life observation / body weight / body weight + systemic / in life observation / body weight / body weight gain + systemic / in…
dog [10] = settings: Chronic toxicity; beagle; Oral; Feed; dose end: 52 week; group: systemic; systemic / in life observation / body weight / body weight gain
dog [11] = settings: Subchronic oral toxicity in nonrodent, beagle, Feed, dose end: 6 month, group: systemic
rat [12] = settings: Prenatal developmental toxicity study, sprague dawley, Oral, Gavage/Intubation, dose end: 15 GD
dog [13] = settings: Subchronic oral toxicity in nonrodent, beagle, Feed, dose end: 6 month, group: systemic; remark: listed apart in the source
[14] = group: developmental, developmental / developmental malformation / bone / misshapen + developmental / developmental malformation / bone / short + developmental / …
[15] = group: maternal, reproductive / reproductive performance / resorptions / resorptions
[16] = systemic / in life observation / body weight / body weight + systemic / in life observation / food consumption / food consumption + systemic…
[17] = systemic / in life observation / body weight / body weight + systemic / pathology microscopic / thyroid gland / hyperplasia
[18] = systemic / pathology microscopic / thyroid gland / hyperplasia + systemic / pathology microscopic / thyroid gland / hypertrophy + systemic…
[19] = systemic / in life observation / clinical signs / tremors
[20] = systemic / in life observation / clinical signs / tremors + reproductive / reproductive performance / aborted / aborted + systemic / …
[21] = group: developmental, developmental / developmental malformation / bone / incomplete ossification + systemic / in life observation / body weight / fetal weight
[22] = group: maternal, systemic / hematology / hematocrit (hct) / hematocrit (hct) + systemic / hematology / hemoglobin (hgb) / hemoglobin (hgb) + systemic / …
[23] = systemic / in life observation / body weight / body weight gain
[24] = systemic / in life observation / body weight / body weight gain + systemic / in life observation / food consumption / food consumption
[25] = group: developmental, systemic / in life observation / body weight / fetal weight
[26] = group: maternal, reproductive / reproductive performance / implantations / implantations + systemic / in life observation / body weight / body weight gain + …

NC(=O)N1c2ccccc2C=Cc2ccccc21 [Carbamazepine]
LEL (mouse [1]; [14]): 15 mg/kg/day
LOAEL (mouse [1]; [14]): > 30 mg/kg/day
NEL (mouse [1]; [14]): < 15 mg/kg/day
NOAEL (mouse [1]; [14]): ≥ 30 mg/kg/day
LEL (mouse [1]; [15]): 15 mg/kg/day
LOAEL (mouse [1]; [15]): > 30 mg/kg/day
NEL (mouse [1]; [15]): < 15 mg/kg/day
NOAEL (mouse [1]; [15]): ≥ 30 mg/kg/day
LEL (rat [2]): 20 mg/kg/day
LOAEL (rat [2]): > 20 mg/kg/day
NEL (rat [2]): < 20 mg/kg/day
NOAEL (rat [2]): ≥ 20 mg/kg/day

S=C1NCCN1 [Ethylene thiourea]
LOAEL (rat [3]; [16]): > 150 mg/kg/day
NOAEL (rat [3]; [16]): ≥ 150 mg/kg/day
LEL (rat [3]; [17]): 12 mg/kg/day
NEL (rat [3]; [17]): < 12 mg/kg/day
LEL (dog [4]): 1.79 mg/kg/day
LOAEL (dog [4]): 1.79 mg/kg/day
NEL (dog [4]): 0.19 mg/kg/day
NOAEL (dog [4]): 0.19 mg/kg/day
LOAEL (rat [5]; systemic / pathology microscopic / thyroid gland / hyperplasia + systemic / pathology microscopic / thyroid gland / hypertrophy): 1.25 mg/kg/day
LEL (rat [5]; [18]): 1.25 mg/kg/day
NEL (rat [5]; [18]): 0.125 mg/kg/day
NOAEL (rat [5]; [18]): 0.125 mg/kg/day

CC(C)(C)N(NC(=O)c1ccc(Cl)cc1)C(=O)c1ccccc1 [Halofenozide]
LEL (rabbit; [19]): 20 mg/kg/day
LOAEL (rabbit; [19]): 20 mg/kg/day
NEL (rabbit; [20]): 10 mg/kg/day
NOAEL (rabbit; [20]): 10 mg/kg/day
LEL (rat [6]): 52.7 mg/kg/day
LOAEL (rat [6]): 52.7 mg/kg/day
NEL (rat [6]): 5.53 mg/kg/day
NOAEL (rat [6]): 5.53 mg/kg/day
LEL (dog [7]): 11.5 mg/kg/day
LOAEL (dog [7]): 11.5 mg/kg/day
NEL (dog [7]): 4 mg/kg/day
NOAEL (dog [7]): 4 mg/kg/day
LEL (rat [8]; [21]): 180 mg/kg/day
LOAEL (rat [8]; [21]): 180 mg/kg/day
NEL (rat [8]; [21]): 30 mg/kg/day
NOAEL (rat [8]; [21]): 30 mg/kg/day
LEL (rat [8]; [22]): 180 mg/kg/day
LOAEL (rat [8]; [22]): 180 mg/kg/day
NEL (rat [8]; [22]): 30 mg/kg/day
NOAEL (rat [8]; [22]): 30 mg/kg/day

CCc1cccc(C)c1N(C(=O)CCl)C(C)COC (stereo not drawn) [Metolachlor]
LEL (mouse [9]): 450 mg/kg/day
LOAEL (mouse [9]): 450 mg/kg/day
NEL (mouse [9]): 150 mg/kg/day
NOAEL (mouse [9]): 150 mg/kg/day
LEL (dog [10]): 33 mg/kg/day
LOAEL (dog [10]): 33 mg/kg/day
NEL (dog [10]): 9.7 mg/kg/day
NOAEL (dog [10]): 9.7 mg/kg/day
LOAEL (dog [11]; [23]): 29.4 mg/kg/day
LEL (dog [11]; [24]): 29.4 mg/kg/day
NEL (dog [11]; [24]): 8.77 mg/kg/day
NOAEL (dog [11]; [24]): 8.77 mg/kg/day
LEL (rat [12]; [25]): 1000 mg/kg/day
LOAEL (rat [12]; [25]): 1000 mg/kg/day
NEL (rat [12]; [25]): 300 mg/kg/day
NOAEL (rat [12]; [25]): 300 mg/kg/day
LOAEL (rat [12]; [26]): 1000 mg/kg/day
NEL (rat [12]; [26]): 100 mg/kg/day
NOAEL (rat [12]; [26]): 300 mg/kg/day
LEL (rat [12]; group: maternal, systemic / in life observation / clinical signs / salivation): 300 mg/kg/day
LOAEL (dog [13]; [23]): 29.4 mg/kg/day
LEL (dog [13]; [24]): 29.4 mg/kg/day
NEL (dog [13]; [24]): 8.77 mg/kg/day
NOAEL (dog [13]; [24]): 8.77 mg/kg/day
